Data published in patent US20160206688A1, “METHODS FOR TREATING BACTEREMIA AND OSTEOMYELITIS USING ORITAVANCIN” (THE MEDICINES COMPANY, priority 2013, published 2016).
Values after ≈ are worked out from the molar mass of the structure shown. Read-outs that look alike come from different tables or passages of the source.

System: S. aureus
Experiment: Broth microdilution MIC, European bacteraemia isolates 2010-2012
Format: cell-based
Protocol: A total of 2,904 clinical strains responsible for documented bacteremia among unique hospitalized patients in 38 hospitals in 11 European Union countries. Israel, Russia, Turkey and Ukraine were included in this study (2010-2012). Isolates were submitted to a central monitoring laboratory (JMI Laboratories, North Liberty. Iowa. USA), following previously established protocols. Bacterial species identification was performed by using an automated system (Vitek®2; bioMèrieux, Hazelwood, Mo., USA) or conventional biochemical algorithms, as required.
Isolates were tested for susceptibility by broth microdilution methods following the Clinical and Laboratory Standards Institute (CLSI; M07-A9, 2012) document. Susceptibility testing was performed in cation-adjusted Mueller-Hinton broth (CA-MHB) using dry-form panels manufactured by Thermo Fisher Scientific, formerly TREK Diagnostics Systems/Sensititre (Cleveland. Ohio, USA). These panels provide results equivalent to the CLSI-approved broth microdilution method supplemented with 0.002% polysorbate-80.
Quality assurance was performed by concurrent testing of CLSI-recommended (M100-S23, 2013) strains: E. faecalis ATCC 29212 and S. aureus ATCC 29213. Interpretation of comparator MIC results was in accordance with published CLSI (M100-S23) and European Committee on Antimicrobial Susceptibility Testing (EUCAST, 2013) criteria.

[1] = S. aureus, Methicillin-Susceptible (1,126), at ≦0.008 mg/L
[2] = S. aureus, Methicillin-resistant (372), at ≦0.008 mg/L
[3] = S. aureus, Vancomycin MIC = 2 mg/L (19), at 0.015 mg/L
[4] = S. aureus, Vancomycin MIC = 2 mg/L (19), at 0.03 mg/L
[5] = S. aureus, Vancomycin MIC = 2 mg/L (19), at 0.06 mg/L
[6] = S. aureus, Vancomycin MIC = 2 mg/L (19), at 0.12 mg/L
[7] = Staphylococcus aureus, Table 1, S. aureus, Methicillin-Susceptible (1,126)
[8] = Staphylococcus aureus, Table 1, S. aureus, Methicillin-resistant (372)
[9] = Staphylococcus aureus, read-out: cumulative % inhibited at MIC

CN[C@H](CC(C)C)C(=O)N[C@H]1C(=O)N[C@@H](CC(N)=O)C(=O)N[C@H]2C(=O)N[C@H]3C(=O)N[C@H](C(=O)N[C@H](C(=O)O)c4cc(O)cc(O)c4-c4cc3ccc4O)[C@H](O[C@H]3C[C@](C)(N)[C@@H](O)[C@H](C)O3)c3ccc(c(Cl)c3)Oc3cc2cc(c3O[C@@H]2O[C@H](CO)[C@@H](O)[C@H](O)[C@H]2O[C@H]2C[C@](C)(NCc3ccc(-c4ccc(Cl)cc4)cc3)[C@@H](O)[C@H](C)O2)Oc2ccc(cc2Cl)[C@H]1O [Oritavancin, N-(4-(4-chlorophenyl)benzyl)A82846B]
activity relative to vancomycin or linezolid (MRSA strains, MIC50/90): 16- to 32 fold | potency relative to daptomycin (MRSA strains, MIC50/90): eight-fold | MIC50, MIC90 and modal MIC relative to strains with vancomycin MIC≦1 mg/L (S. aureus isolates with decreased susceptibility to vancomycin (MIC=2 mg/L)): two-fold higher | Number inhibited at MIC (S. aureus, Methicillin-Susceptible (1,126), at 0.015 mg/L): 247 | Number inhibited at MIC (S. aureus, Methicillin-Susceptible (1,126), at 0.03 mg/L): 458 | Number inhibited at MIC (S. aureus, Methicillin-Susceptible (1,126), at 0.06 mg/L): 297 | Number inhibited at MIC (S. aureus, Methicillin-Susceptible (1,126), at 0.12 mg/L): 78 | Number inhibited at MIC (S. aureus, Methicillin-Susceptible (1,126), at 0.25 mg/L): 18 | Number inhibited at MIC [1]: 28 | cumulative % inhibited at MIC [1]: 2.5% | Number inhibited at MIC (S. aureus, Methicillin-resistant (372), at 0.015 mg/L): 86 | Number inhibited at MIC (S. aureus, Methicillin-resistant (372), at 0.03 mg/L): 180 | Number inhibited at MIC (S. aureus, Methicillin-resistant (372), at 0.06 mg/L): 68 | Number inhibited at MIC (S. aureus, Methicillin-resistant (372), at 0.12 mg/L): 27 | Number inhibited at MIC (S. aureus, Methicillin-resistant (372), at 0.25 mg/L): 6 | Number inhibited at MIC [2]: 5 | cumulative % inhibited at MIC [2]: 1.3% | Number inhibited at MIC [3]: 1 | cumulative % inhibited at MIC [3]: 5.3% | Number inhibited at MIC [4]: 3 | cumulative % inhibited at MIC [4]: 21.1% | Number inhibited at MIC [5]: 11 | cumulative % inhibited at MIC [5]: 78.9% | Number inhibited at MIC [6]: 3 | cumulative % inhibited at MIC [6]: 94.7% | Number inhibited at MIC (S. aureus, Vancomycin MIC = 2 mg/L (19), at 0.25 mg/L): 1 | Number inhibited at MIC (S. aureus, Vancomycin MIC = 2 mg/L (19), at ≦0.008 mg/L): 0 | Number inhibited at MIC (S. aureus, Vancomycin MIC ≦1 mg/L (1,479), at 0.12 mg/L): 102 | Number inhibited at MIC (S. aureus, Vancomycin MIC ≦1 mg/L (1,479), at 0.25 mg/L): 23 | MIC50 (Staphylococcus aureus): 0.03 µg/mL (≈ 0.0167 µM) | MIC90 (Staphylococcus aureus): 0.06 µg/mL (≈ 0.0335 µM) | inhibition at 2 µg/mL (Staphylococcus aureus, S. aureus, Vancomycin MIC = 2 mg/L (19), at ≦0.008 mg/L, read-out: cumulative % inhibited at MIC): 0% | inhibition at 0.12 µg/mL (Staphylococcus aureus, S. aureus, Vancomycin MIC ≦1 mg/L (1,479), at 0.12 mg/L, read-out: cumulative % inhibited at MIC): 98.4% | inhibition at 0.25 µg/mL (Staphylococcus aureus, S. aureus, Vancomycin MIC ≦1 mg/L (1,479), at 0.25 mg/L, read-out: cumulative % inhibited at MIC): 100% | MIC50 [7]: 0.03 µg/mL (≈ 0.0167 µM) | MIC90 [7]: 0.06 µg/mL (≈ 0.0335 µM) | MIC50 [8]: 0.03 µg/mL (≈ 0.0167 µM) | MIC90 [8]: 0.06 µg/mL (≈ 0.0335 µM) | MIC50 (Staphylococcus aureus, Table 1, S. aureus, Vancomycin MIC = 2 mg/L (19), read-out: MIC 50%): 0.06 µg/mL (≈ 0.0335 µM) | MIC90 (Staphylococcus aureus, Table 1, S. aureus, Vancomycin MIC = 2 mg/L (19), read-out: MIC 90%): 0.12 µg/mL (≈ 0.0669 µM) | inhibition at 0.015 µg/mL [9]: 24.7% | inhibition at 0.03 µg/mL [9]: 67.6% | inhibition at 0.06 µg/mL [9]: 91.5% | inhibition at 0.015 µg/mL (Staphylococcus aureus, read-out: cumulative % inhibited at MIC, S. aureus, Methicillin-Susceptible (1,126), at 0.015 mg/L): 24.4% | inhibition at 0.03 µg/mL (Staphylococcus aureus, read-out: cumulative % inhibited at MIC, S. aureus, Methicillin-Susceptible (1,126), at 0.03 mg/L): 65.1% | inhibition at 0.06 µg/mL (Staphylococcus aureus, read-out: cumulative % inhibited at MIC, S. aureus, Methicillin-Susceptible (1,126), at 0.06 mg/L): 91.5% | inhibition at 0.12 µg/mL (Staphylococcus aureus, read-out: cumulative % inhibited at MIC, S. aureus, Methicillin-Susceptible (1,126), at 0.12 mg/L): 98.4% | inhibition at 0.25 µg/mL (Staphylococcus aureus, read-out: cumulative % inhibited at MIC, S. aureus, Methicillin-Susceptible (1,126), at 0.25 mg/L): 100% | inhibition at 0.015 µg/mL (Staphylococcus aureus, read-out: cumulative % inhibited at MIC, S. aureus, Methicillin-resistant (372), at 0.015 mg/L): 24.5% | inhibition at 0.03 µg/mL (Staphylococcus aureus, read-out: cumulative % inhibited at MIC, S. aureus, Methicillin-resistant (372), at 0.03 mg/L): 72.9% | inhibition at 0.06 µg/mL (Staphylococcus aureus, read-out: cumulative % inhibited at MIC, S. aureus, Methicillin-resistant (372), at 0.06 mg/L): 91.1% | inhibition at 0.12 µg/mL (Staphylococcus aureus, read-out: cumulative % inhibited at MIC, S. aureus, Methicillin-resistant (372), at 0.12 mg/L): 98.4%
